Test results taken from EP4667458A1 (Kanaph Therapeutics Inc., priority 2023, dated 2024).

Key:
[1] = system: lung cancer cell line NCI-H358 having the KRAS G12C variant; assay: Cell viability (Cell Titer-Glo) on combined administration, NCI-H358; assay type: cell-based
From the text: When the example compound was used in combination with an anticancer agent, the effect on the growth ability of cancer cells expressing KRAS variant or EGFR variant was confirmed. In order to confirm the effect of the example compound in combination with a MEK inhibitor or a KRAS G12C inhibitor in the cell line having the KRAS variant, the cell growth inhibitory effect by the treatment of the example compound in combination with a MEK inhibitor or a KRAS G12C inhibitor was confirmed in the gastric cancer cell line SNU-1 and the pancreatic cancer cell line KP4 having the KRAS G12D variant, the lung cancer cell line NCI-H358 and the pancreatic cancer cell line MIA PaCa-2 having the KRAS G12C variant, the colorectal cancer cell line SW480 having the KRAS G12V variant, the lung cancer cell line A549 having the KRAS G12S variant, the colorectal cancer cell line LoVo having the KRAS G13D variant. In addition, in order to confirm the effect of the example compound in combination with an EGFR inhibitor in the cell line having the EGFR variant, the cell growth inhibitory effect by the treatment of the example compound in combination with an EGFR inhibitor was confirmed in the lung cancer cell line H1975 having the EGFR L858R/T790M variant and the lung cancer cell line HCC827 having the EGFR Del19 variant. […]

KRAS^G12C::SOS1 = biological target: T1, KRAS^G12C::SOS1 (Homo sapiens, UniProt Q07889); assay: KRAS G12C::SOS1 protein-protein interaction (PPI) inhibition assay (HTRF binding kit)
T1 sequence (Q07889 1-1333): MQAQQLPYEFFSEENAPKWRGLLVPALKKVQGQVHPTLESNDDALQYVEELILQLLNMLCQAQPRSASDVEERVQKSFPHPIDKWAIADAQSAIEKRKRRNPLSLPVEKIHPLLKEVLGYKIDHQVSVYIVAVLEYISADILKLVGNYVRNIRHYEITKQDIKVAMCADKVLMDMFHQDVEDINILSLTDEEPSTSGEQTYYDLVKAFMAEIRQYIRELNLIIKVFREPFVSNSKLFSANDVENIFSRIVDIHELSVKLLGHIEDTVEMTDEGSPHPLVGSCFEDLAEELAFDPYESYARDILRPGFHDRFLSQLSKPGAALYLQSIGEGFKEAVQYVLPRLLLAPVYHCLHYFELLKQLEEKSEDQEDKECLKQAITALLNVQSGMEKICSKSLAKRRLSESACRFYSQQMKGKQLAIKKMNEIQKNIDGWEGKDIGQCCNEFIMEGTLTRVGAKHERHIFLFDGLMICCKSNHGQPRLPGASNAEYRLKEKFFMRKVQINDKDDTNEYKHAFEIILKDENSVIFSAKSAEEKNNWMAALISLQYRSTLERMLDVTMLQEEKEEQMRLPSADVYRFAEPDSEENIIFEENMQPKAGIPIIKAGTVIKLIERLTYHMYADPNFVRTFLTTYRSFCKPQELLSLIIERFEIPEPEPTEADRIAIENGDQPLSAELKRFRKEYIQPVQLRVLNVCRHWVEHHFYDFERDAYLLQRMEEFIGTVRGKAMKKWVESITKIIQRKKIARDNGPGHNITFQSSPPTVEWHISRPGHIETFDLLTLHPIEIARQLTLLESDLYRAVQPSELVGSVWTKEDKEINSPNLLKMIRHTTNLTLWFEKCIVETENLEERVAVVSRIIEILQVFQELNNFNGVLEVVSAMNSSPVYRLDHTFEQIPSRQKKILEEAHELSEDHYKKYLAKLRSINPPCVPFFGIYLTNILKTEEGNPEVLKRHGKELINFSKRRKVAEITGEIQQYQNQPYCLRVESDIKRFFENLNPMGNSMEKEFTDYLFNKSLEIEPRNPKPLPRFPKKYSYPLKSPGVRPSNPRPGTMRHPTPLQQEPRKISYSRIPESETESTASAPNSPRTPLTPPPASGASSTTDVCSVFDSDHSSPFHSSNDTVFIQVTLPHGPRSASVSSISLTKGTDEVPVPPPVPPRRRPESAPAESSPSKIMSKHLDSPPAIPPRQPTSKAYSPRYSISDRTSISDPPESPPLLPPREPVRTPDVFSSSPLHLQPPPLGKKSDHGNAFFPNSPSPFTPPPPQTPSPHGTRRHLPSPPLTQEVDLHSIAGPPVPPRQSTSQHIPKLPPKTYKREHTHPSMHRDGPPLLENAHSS

SOS1 = biological target: T2, SOS1 (Homo sapiens, UniProt Q07889); assay: SOS-catalyzed nucleotide exchange assay (HTRF, SOS1-mediated GTP loading of KRAS G12D); assay type: biochemical
T2 construct: adding equal amounts of HIS-SOS1cat (160 nM; Cytoskeleton, US); His; purchased Cytoskeleton, US
T2 sequence (Q07889 564-1049 limits assumed): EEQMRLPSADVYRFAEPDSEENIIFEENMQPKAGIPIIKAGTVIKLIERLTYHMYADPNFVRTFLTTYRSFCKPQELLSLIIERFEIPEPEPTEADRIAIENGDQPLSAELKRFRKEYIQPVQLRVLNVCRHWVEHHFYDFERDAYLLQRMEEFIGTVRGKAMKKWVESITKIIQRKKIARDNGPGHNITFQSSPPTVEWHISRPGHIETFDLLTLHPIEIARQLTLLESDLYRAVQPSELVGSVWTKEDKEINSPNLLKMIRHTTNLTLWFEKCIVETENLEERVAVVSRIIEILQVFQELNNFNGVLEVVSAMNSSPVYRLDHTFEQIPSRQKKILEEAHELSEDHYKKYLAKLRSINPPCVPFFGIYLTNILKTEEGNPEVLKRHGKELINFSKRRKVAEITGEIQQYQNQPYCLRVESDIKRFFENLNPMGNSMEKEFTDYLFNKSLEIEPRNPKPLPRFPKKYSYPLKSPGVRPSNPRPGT
Procedure, shortened: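 SOS1cat (HIS-tagged) preincubated 10 min at room temperature with compound (128 pM-10 µM), then GST-KRAS G12D with anti-GST terbium added; GTP loading tracked as HTRF with a DY-647P1 GTP analogue after 30 min, buffer HEPES pH 7.4. GEF-free wells for normalization; IC50 derived.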

[2] = system: lung cancer cell line H358 having the KRAS G12C variant; assay: SynergyScreen determination of combination concentration (ATPlite 1Step cell viability); assay type: cell-based; settings: EFFECT20 applied as final treatment concentration in the combination experiment
Protocol: The cells were treated by adding 5 µL of a test solution of Example B01 per well to a 384 well plate in which the lung cancer cell line H358 having the KRAS G12C variant was dispensed so that the final concentration of the substance was 31.6 µM to 0.00316 µM in 50 µL of the solution per well. The cells treated with Example B01 were cultured under conditions of 37 °C and 5% carbon dioxide for 72 h or 120 h. In order to measure cell viability, each well was treated with 24 µL of ATPlite 1Step™ (PerkinElmer) solution, then mixed for 2 minutes, and reacted by blocking light for 5 minutes, and then the luminescence signal was measured using an Envision multilabel reader (PerkinElmer). The cell viability was determined according to the formula below, and the concentration (EFFECT20) of Example B01 that induces 20% cell death was calculated using IDBS XLfit 5. The EFFECT20 concentration of Example B01 determined through the experiment was applied as the final treatment concentration of Example B01 during the combination effect experiment. [formula]
In order to confirm the effect of Example B01 in combination with various anticancer agents, a total of 42 anticancer agents, including cytotoxic anticancer agents and targeted anticancer agents, were used for evaluation (Table 31). […]

[3] = Cell viability with a combined anticancer agent plus Example B01 (Synergy 1 / Synergy 2); assay type: cell-based; settings: culture time 72 h; printed in the anticancer agent concentration column

Row | SMILES | cell viability ([1]; INK-128 (3.2-100 nM) in combination with Example 295 (0-300 nM) compared to INK-128 alone, 72 h, FIG. 1) | cell viability ([1]; sotorasib (0.14-10 nM) in combination with Example 295 (0-300 nM) compared to sotorasib alone, FIG. 2) | IC50 (KRAS^G12C::SOS1) [nM] | IC50 (SOS1) [nM] | concentration (EFFECT20) that induces 20% cell death ([2]; culture time 72 h) [nM] | concentration (EFFECT20) that induces 20% cell death ([2]; culture time 120 h) [nM] | concentration dependence of the effect of the anticancer agent on cell viability [3]
1 | CNCc1ccc(Cl)cc1-c1ccc([C@@H](C)NC(=O)c2ccc(=O)n(-c3ccccc3F)n2)s1 [Example 295, N-[(1R)-1-[5-[5-chloro-2-(methylaminomethyl)phenyl]-2-thienyl]ethyl]-1-(2-fluorophenyl)-6-oxo-pyridazine-3-carboxamide] | decreased | decreased | < 1000 |  |  |  | 
2 | C[C@@H](NC(=O)c1ccc(=O)n(-c2cncc(-c3cnnn3C)c2)n1)c1cccc(C(F)(F)F)c1F [Example B01, N-[(1R)-1-[2-fluoro-3-(trifluoromethyl)phenyl]ethyl]-1-[5-(3-methyltriazol-4-yl)-3-pyridyl]-6-oxo-pyridazine-3-carboxamide] |  |  | < 1000 | < 1000 | 1854 | 652 | 
3 | C[C@]12C=CC(=O)C=C1CC[C@@H]1[C@@H]2[C@@H](O)C[C@@]2(C)[C@H]1CC[C@]2(O)C(=O)CO [Prednisolone, prednisolone] |  |  |  |  |  |  | No concentration -dependent change
